Results from patent US11603373B2, “TDO2 and IDO1 inhibitors” (Genentech, Inc., priority 2017, dated 2023).

Assays:
[1] = target: T1, TDO2 (SW48 cells, high TDO expressing cells) (Homo sapiens, UniProt P48775); assay: NFK GreenScreen cell assay, inhibition of TDO in SW48 cells; assay type: cell-based; settings: read-out: TDO2 Cell Fluor EC50
T1 construct: SW48 cells (high TDO expressing cells); endogenous in cells; host or cells: SW48 cells
From the text: (§1) Cells are counted on a Vi-Cell (Beckman Coulter). […] The final DMSO concentration is 0.5%.

[2] = target: T2, IDO1 (A172+IFNg cells, high IDO expressing cells) (Homo sapiens, UniProt P14902); assay: NFK GreenScreen cell assay, inhibition of IDO in A172+IFNg cells; assay type: cell-based; settings: read-out: IDO cell Fluor EC50
T2 construct: A172+IFNg cells (high IDO expressing cells); endogenous in cells; host or cells: A172 cells induced with 100 ng/ml IFNγ
T2 sequence (P14902 whole entry): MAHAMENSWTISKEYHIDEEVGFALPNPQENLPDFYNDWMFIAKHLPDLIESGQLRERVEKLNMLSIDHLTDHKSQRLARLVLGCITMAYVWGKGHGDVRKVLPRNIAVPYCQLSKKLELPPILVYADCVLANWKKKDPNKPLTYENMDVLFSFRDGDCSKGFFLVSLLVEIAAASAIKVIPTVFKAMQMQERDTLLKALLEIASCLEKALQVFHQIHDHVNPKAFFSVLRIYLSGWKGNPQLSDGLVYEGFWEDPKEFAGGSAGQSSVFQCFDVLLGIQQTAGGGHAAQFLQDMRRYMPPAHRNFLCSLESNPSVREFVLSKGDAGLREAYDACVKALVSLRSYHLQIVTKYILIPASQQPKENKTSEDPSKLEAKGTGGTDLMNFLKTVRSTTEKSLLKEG
From the text: as §1

T1 sequence (P48775 whole entry): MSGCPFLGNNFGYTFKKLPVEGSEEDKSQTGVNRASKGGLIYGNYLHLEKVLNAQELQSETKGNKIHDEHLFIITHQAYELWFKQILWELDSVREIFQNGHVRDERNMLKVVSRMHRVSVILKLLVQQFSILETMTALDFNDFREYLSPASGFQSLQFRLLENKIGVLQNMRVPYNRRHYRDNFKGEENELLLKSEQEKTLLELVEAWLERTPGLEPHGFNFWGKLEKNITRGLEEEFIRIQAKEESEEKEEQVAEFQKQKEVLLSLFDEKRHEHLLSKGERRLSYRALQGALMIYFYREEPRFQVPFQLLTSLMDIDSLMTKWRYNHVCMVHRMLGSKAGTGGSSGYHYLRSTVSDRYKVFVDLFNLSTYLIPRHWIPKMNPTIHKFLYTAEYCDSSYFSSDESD

`O=S1(=O)CCC2(CC[C@@H]([C@H]3c4ccccc4-c4cncn43)[C@H]2O)CC1` (relative stereo) [Example 13a, (1R,2S)-1-hydroxy-2-((S)-5H-imidazo[5,1-a]isoindol-5-yl)-8-thiaspiro[4.5]decane 8,8-dioxide] gave an EC50 [1] of 160 nM and an EC50 [2] of 290 nM.
`CC(C)(C)OC(=O)N1CC2CCC(C1)C21C[C@H]([C@@H]2c3ccccc3-c3cncn32)[C@@H]1O` (relative stereo) [Example 22a, tert-butyl (2′S,3′R)-2′-hydroxy-3′-((R)-5H-imidazo[5,1-a]isoindol-5-yl)-3-azaspiro[bicyclo[3.2.1]octane-8,1′-cyclobutane]-3-carboxylate] showed an EC50 [1] of 410 nM and an EC50 [2] of 2100 nM.
Molecule `CC(C)(C)OC(=O)N1CCC2(CC1)C[C@H](C1c3ccccc3-c3cncn31)[C@@H]2O` (single isomer, unassigned) [Example 1a] has an EC50 [1] of 6300 nM and an EC50 [2] of 4300 nM.
In the case of `CC(C)(C)OC(=O)N1CCC2(CC1)C[C@@H]([C@H]1c3ccccc3-c3cncn31)[C@H]2O` (single isomer, unassigned) [Example 1b], the EC50 [1] is reported as 300 nM and the EC50 [2] is reported as 27.9 nM.
With `CC(C)(C)OC(=O)N1CCC2(CC[C@@H]([C@@H]3c4ccccc4-c4cncn43)[C@@H]2O)CC1` (single isomer, unassigned) [Example 2a] the EC50 [1] was 15000 nM and the EC50 [2] was 6600 nM.
`CC(C)(C)OC(=O)N1CCC2(CC[C@H]([C@H]3c4ccccc4-c4cncn43)[C@H]2O)CC1` (single isomer, unassigned) [Example 2b] gave an EC50 [1] of 240 nM and an EC50 [2] of 410 nM.
`CC(C)(C)OC(=O)N1CCC2(CC[C@@H]([C@H]3c4ccccc4-c4cncn43)[C@H]2O)CC1` (single isomer, unassigned) [Example 2c] gave an EC50 [1] of 107 nM and an EC50 [2] of 51.5 nM.
With `CC(C)(C)OC(=O)N1CCC2(CC[C@H]([C@@H]3c4ccccc4-c4cncn43)[C@@H]2O)CC1` (single isomer, unassigned) [Example 2d] the EC50 [1] was 3700 nM and the EC50 [2] was 1600 nM.
For `CC(C)(C)OC(=O)N1CC2(CC[C@H]([C@@H]3c4ccccc4-c4cncn43)[C@@H]2O)C1` (single isomer, unassigned) [Example 3b], the EC50 [1] was 72 nM and the EC50 [2] was 1100 nM.
With `CC(C)(C)OC(=O)N1CC2(CC[C@@H]([C@@H]3c4ccccc4-c4cncn43)[C@@H]2O)C1` (single isomer, unassigned) [Example 3c] the EC50 [1] was 14000 nM and the EC50 [2] was 13000 nM.
`CC(C)(C)OC(=O)N1CC2(CC[C@H]([C@H]3c4ccccc4-c4cncn43)[C@H]2O)C1` (single isomer, unassigned) [Example 3d] showed an EC50 [1] of 130 nM and an EC50 [2] of 4000 nM.
With `CC(=O)N1CCC2(CC[C@@H]([C@H]3c4ccccc4-c4cncn43)[C@H]2O)CC1` (single isomer, unassigned) [Example 10a] the EC50 [1] was 24000 nM.
`NS(=O)(=O)N1CCC2(CC1)C[C@@H]([C@H]1c3ccccc3-c3cncn31)[C@@H]2O` (single isomer, unassigned) [Example 11d] showed an EC50 [1] of 3000 nM.
In the case of `NS(=O)(=O)N1CCC2(CC1)C[C@@H]([C@@H]1c3ccccc3-c3cncn31)[C@@H]2O` (single isomer, unassigned) [Example 11h], the EC50 [1] is reported as 11000 nM.
`CC(C)(C)OC(=O)N[C@H]1CC[C@]2(CC1)C[C@@H]([C@H]1c3ccccc3-c3cncn31)[C@@H]2O` (single isomer, unassigned) [Example 24o] was tested, and the EC50 [1] was 20000 nM.
For `CC(C)(C)OC(=O)N1CC2CCC(C1)C21C[C@H]([C@H]2c3ccccc3-c3cncn32)[C@@H]1O` (stereo partly drawn) [Example 22c, tert-butyl (2′S,3′R)-2′-hydroxy-3′-((S)-5H-imidazo[5,1-a]isoindol-5-yl)-3-azaspiro[bicyclo[3.2.1]octane-8,1′-cyclobutane]-3-carboxylate], the EC50 [2] was 8800 nM.
`O=C(C1CCc2nncn2C1)N1CCC2(CC1)CC(C1c3ccccc3-c3cncn31)C2O` (stereo not shown) [compound 67, [3-hydroxy-2-(5H-imidazo[1,5-b]isoindol-5-yl)-7-azaspiro[3.5]nonan-7-yl]-(5,6,7,8-tetrahydro-[1,2,4]triazolo[4,3-a]pyridin-6-yl)methanone] was tested, and the EC50 [1] was 23000 nM.
